Assay results reported in patent US12083098B2, “Treatment of idiopathic pulmonary fibrosis with glycogen synthase kinase 3 form β inhibitors” (Actuate Therapeutics Inc., priority 2018, dated 2024).
“Also recorded” adds a separate entry of the source.

Tests used:
[1] = tested on: TGF-β adenovirus induced pulmonary fibrosis; assay: TGF-β adenovirus-induced pulmonary fibrosis model in mice; format: in vivo
Method: In a second model, pulmonary fibrosis was initiated by intratracheal instillation of constitutively active TGF-β adenoviral vectors (Ad-TGF-β) bearing C223S/C225S mutations, as reported by Mackinnon A C et al., Am J Respir Crit Care Med 2012, 185:537-46) with some modifications. Briefly, 3×10^8 pfu of Ad-TGF-β or eGFP adenovirus control vector (Ad-eGFP) were administered intratracheally in a volume of 40 μl. Mice were then monitored daily until the completion of the 14 d time-course. For GSK-3β inhibition studies, mice received daily 9-ING-41 treatment 7 d after administration of the adenoviral vectors. At the conclusion of the time-course pulmonary function testing and CT scans were performed as described (Tucker T et al., 2019, supra; Kamata H et al., 2017, supra; Boren J et al., 2017, supra; Tucker T A et al., 2016, supra.
(§1) All statistical analyses of animal studies was performed using the Mann Whitney U test. (Student's t-test was used for in vitro studies). A p-value of less than 0.05 was considered significant.
Pulmonary fibrosis was initiated by intratracheal instillation of constitutively active TGF-β adenoviral vectors (Ad-TGF-0) bearing C223S/C225S mutations, as previously reported (Mackinnon A C et al., Am J Respir Crit Care Med 2012, 185:537-46) with some modifications. Briefly, 3×10^8 plaque forming units (pfu) of Ad-TGF-β or eGFP adenovirus control vector (Ad-eGFP) were administered intratracheally in a volume of 40 μl. Mice were then monitored daily until the completion of the 14 d time-course. For GSK-3β inhibition studies, mice received daily 9-ING-41 treatment 7 d after administration of the adenoviral vectors. At the conclusion of the time-course pulmonary function testing and CT scans were performed as described (Tucker T et al., 2019, supra; Kamata H et al., 2017, supra; Boren J et al., 2017, supra; Tucker T A et al., 2016, supra.

[2] = tested on: bleomycin-induced pulmonary fibrosis; assay: Bleomycin-induced pulmonary fibrosis model in mice; format: in vivo, C57BL/6 mice
Method: All animal studies were approved by the Institutional Animal Care and Use Committee at the University of Texas Health Science Center at Tyler. C57BL/6 mice (10-12 weeks of age, ≈20 g (from Jackson Laboratory, Bar Harbor ME) were first anesthetized with xylazine/ketamine by intraperitoneal (TP) injection. Lung injury was then initiated in accordance with (Sisson T H et al., Am J Pathol 2015, 185:[…]) with some modifications. Bleomycin sulfate (Teva, 0.8 units/kg) was administered intratracheally via an intratracheal cannula. Animals were monitored daily for sign of respiratory distress, significant weight loss or moribund condition. The control group received normal saline under the same conditions.
Treatments were begun 14 d after the initiation of injury. For GSK-3β inhibitor studies, treatment with 9-ING-41 (gift from Actuate Therapeutics, Ft. Worth, TX), at 30 mg/kg, or vehicle control dimethylsulfoxide/DMSO in a volume of 40 μl, was administered daily by IP injection for up to 14 d.
At the completion of the 28 d time course mice were evaluated by flexivent (Tucker T et al., Am J Respir Cell Mol Biol 2019 (doi: 10.1165/rcmb.2018-0121OC. Epub ahead of print); Kamata H et al., Sci Rep 2017, 7:4556; Boren J et al., supra; Tucker T A et al., 2014, supra; Tucker T A et al., Clin Transl Med 5: 17, 2016) for changes in pulmonary function including elastance and compliance. Briefly, mice were anesthetized with a ketamine/xylazine mixture. Anesthetized mice were intubated by inserting a sterile, 20-gauge intravenous cannula through the vocal cords into the trachea and were maintained under anesthesia using isoflurane during pulmonary function testing. Measurements were performed using the flexiVent system (SCIREQ, Tempe AZ). The “snapshot perturbation method” was used to determine lung compliance, according to manufacturer's specifications. At 28 d, mice were euthanized and lungs harvested en bloc. Lung morphometry was determined by trichrome staining of 5 μm lung tissue sections as described in the above cited references. All tissue sections were first de-paraffinized and subjected to antigen retrieval using a citrate buffer at 95° C. for 20 minutes. Tissue analyses, collagen deposition and localization were initially assessed by Trichrome staining. Immunofluorescence was used to visualize α-SMA (MAB1420, R&D), Confocal microscopy was then used to visualize immunofluorescence and co-localization of the markers. Images were acquired from a field of view at 0.4-μm z-axis increments with the LSM 510 Meta confocal system (Carl Zeiss) at 40× as described.
as §1

Cn1cc(C2=C(c3coc4ccc(F)cc34)C(=O)NC2=O)c2cc3c(cc21)OCO3 [9-ING-41]
lung compliance ([1]; Ad-TGF-β 3×10^8 pfu intratracheal, 9-ING-41 30 mg/kg daily ip from day 7 for 7 d, read at 14 d, n=6, p<0.05 vs controls, 30 mg/kg): significantly improved; also recorded: improved lung function
lung volume ([1]; TGF-β adenovirus model, at completion of 14 d time course): increased lung volume
areas of injury and collagen deposition in lung sections (Trichrome) ([1]; TGF-β adenovirus model, compared to DMSO-treated controls, n=6): reduced areas of injury
lung volume (gated CT scan) ([2]; bleomycin 0.8 U/kg intratracheal, 30 mg/kg daily ip from day 14, read at 28 d, vs DMSO vehicle, p=0.026, 30 mg/kg): significantly improved; also recorded: increased lung volume
collagen 1 deposition in lung sections (immunostaining, confocal microscopy 40×) ([2]; bleomycin injured lungs, compared to vehicle (DMSO) treated controls): reduced
areas of injury / fibrotic foci in lung sections (Trichrome) ([2]; bleomycin model, 30 mg/kg daily ip, 5 μm sections, n=6, compared to vehicle treated animals): fewer in number and smaller
collagen deposition within the fibrotic lesions ([2]; bleomycin model, 30 mg/kg daily ip, compared to DMSO-treated controls): generally reduced
lung compliance (Scireq flexivent) ([2]; bleomycin sulfate 0.8 U/kg intratracheal, 9-ING-41 30 mg/kg daily ip from day 14 for up to 14 d, read at 28 d, vs DMSO vehicle, p=0.04, 30 mg/kg): significantly improved; also recorded: improved lung function
α-SMA expression in lung sections (immunostaining, confocal microscopy 40×) ([2]; marker of myofibroblast differentiation, n=3 mice/treatment, compared to vehicle (DMSO)): reduced
